The subject of one assay is MCF7 cells. Description: Whole cell cytotoxicity assay: Sulforhodamine B. The class given is cell-based, human. The following applies: Homo sapiens; compound at 100 μM; MCF7 cell growth; 48 hours with drug; SRB staining. Put shortly: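 MCF7 cells in DMEM with 10% FBS were seeded 24 h before compound, then exposed to nine concentrations for 48 h at 37° C. TCA-fixed cells stained with sulforhodamine B; absorbance at 570 nm, with a time-zero plate fixed at drug addition.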
A general note: In SRB staining, fixed cells bind dye roughly in proportion to their protein.

The subject of assay [1] is Histone deacetylase (HDAC), HeLa cell nuclear extract. Nature of the assay: In vitro fluorescent histone deacetylase assay (Biomol kit, HeLa cell nuclear extract). The class given is biochemical. The settings on record: compound at 100 μM; HeLa cell nuclear extract as HDAC source; substrate 50 μM; 10 min at room temperature. Put shortly: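 HeLa nuclear extract supplies mixed HDAC activity acting on fluorogenic substrate at 50 μM final, 10 min at room temperature before stopping. Compounds serially diluted in assay buffer, final DMSO ≤2%. Fluorescence read at ex 355/em 460 nm.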

The structures appear in SMILES notation.

As for `O=C(NO)c1cnc(N2CCN(S(=O)(=O)c3ccc(-c4ccccc4Cl)cc3)CC2)s1` [Example 58, 2-{4-[(2′-chloro-1,1′-biphenyl-4-yl)sulfonyl]piperazin-1-yl}-1,3-thiazole-5-carboxylic acid hydroxyamide], the inhibition (in general, how much of the control response was suppressed) at 100 µM in the assay on MCF7 cells came out at 97.6%. Besides, the “% inhibition HDAC @ 100 μM” value in assay [1] was found to be 95%.

As for `O=C(NO)c1cnc(N2CCN(S(=O)(=O)c3ccc4nsnc4c3)CC2)s1` [Example 46, 2-[4-(2,1,3-benzothiadiazole-5-sulfonyl)-piperazin-1-yl]-thiazole-5-carboxylic acid hydroxyamide], the inhibition at 100 µM with MCF7 cells amounted to 77.3%. For the same molecule, the “% inhibition HDAC @ 100 μM” value in assay [1] is 98%.

On to `O=C(NO)c1cnc(N2CCN(S(=O)(=O)c3cc4ccccc4s3)CC2)s1` [Example 43], for which, in the assay with MCF7 cells, the inhibition at 100 µM was 91%. The “% inhibition HDAC @ 100 μM” value in assay [1] was determined as 99%.

Molecule `O=C(NO)c1cnc(N2CCN(S(=O)(=O)c3ccc(-c4cccnc4)cc3)CC2)s1` [Example 93, 2-[4-{(3-pyrido)benzenesulfonyl}-piperazin-1-yl]-thiazole-5-carboxylic acid hydroxyamide] had an inhibition at 100 µM in the assay with MCF7 cells of 92.7%. Besides, the “% inhibition HDAC @ 100 μM” value in assay [1] is on record as 100%.

Turning to `Cc1cc(C)cc(S(=O)(=O)N2CCN(c3ncc(C(=O)NO)s3)CC2)c1` [Example 24, 2-[4-(3,5-dimethylphenylsulfonyl)-piperazin-1-yl]-thiazole-5-carboxylic acid hydroxyamide], testing at 100 µM with MCF7 cells gave an inhibition of 95.3%. Besides, the “% inhibition HDAC @ 100 μM” value in assay [1] is reported as 100%.

In the assay with MCF7 cells, `CN(C)Cc1cccc(-c2ccc(S(=O)(=O)N3CCN(c4ncc(C(=O)NO)s4)CC3)cc2)c1.Cl` [Example 74] gave an inhibition at 100 µM of 97.3%. Besides, the “% inhibition HDAC @ 100 μM” value in assay [1] is listed as 100%.

On to `CC(C)(C)c1ccc(S(=O)(=O)N2CCN(c3ncc(C(=O)NO)s3)CC2)cc1` [Example 25, 2-[4-(4-t-butylphenylsulfonyl)-piperazin-1-yl]-thiazole-5-carboxylic acid hydroxyamide], for which the inhibition at 100 µM with MCF7 cells stood at 90.1%. Further, the “% inhibition HDAC @ 100 μM” value in assay [1] stood at 98%.

`CS(=O)(=O)c1ccc(S(=O)(=O)N2CCN(c3ncc(C(=O)NO)s3)CC2)cc1` [Example 19, 2-[4-(4-methylsufonylphenylsulfonyl)-piperazin-1-yl]-thiazole-5-carboxylic acid hydroxyamide] came in with an inhibition at 100 µM in the assay with MCF7 cells of 76.5%. Moreover, the “% inhibition HDAC @ 100 μM” value in assay [1] is reported as 99%.

The molecule `O=C(NO)c1cnc(N2CCN(S(=O)(=O)c3ccc(-c4cccc(CN5CCCCC5)c4)cc3)CC2)s1` [Example 73] returned an inhibition at 100 µM in the assay with MCF7 cells of 96.7%. In addition, the “% inhibition HDAC @ 100 μM” value in assay [1] was 100%.

As for `Cc1ccc(S(=O)(=O)N2CCN(c3ncc(C(=O)NO)s3)CC2)cc1C` [Example 50, 2-[4-(3,4-dimethylphenylsulfonyl)-piperazin-1-yl]-thiazole-5-carboxylic acid hydroxyamide], 100 µM produced 98.3% inhibition in the assay on MCF7 cells. Further, the “% inhibition HDAC @ 100 μM” value in assay [1] is given as 99%.

In the assay on MCF7 cells, `CN(C)S(=O)(=O)N1CCN(c2ncc(C(=O)NO)s2)CC1` [Example 14, 2-[4-(N,N-dimethylsulfonyl)-piperazin-1-yl]-thiazole-5-carboxylic acid hydroxyamide] came in with an inhibition at 100 µM of 89.8%. Further, the “% inhibition HDAC @ 100 μM” value in assay [1] was determined as 98%.

In the case of `CN(C)c1ccc(S(=O)(=O)N2CCN(c3ncc(C(=O)NO)s3)CC2)cc1` [Example 29, 2-[4-(4-dimethylaminophenylsulfonyl)-piperazin-1-yl]-thiazole-5-carboxylic acid hydroxyamide], testing at 100 µM in the assay on MCF7 cells gave an inhibition of 98.5%. Further, the “% inhibition HDAC @ 100 μM” value in assay [1] is reported as 100%.

On to `O=C(NO)c1cnc(N2CCN(S(=O)(=O)c3ccc(-c4cccc(F)c4)cc3)CC2)s1` [Example 61], for which testing at 100 µM in the assay on MCF7 cells gave an inhibition of 92.2%. Besides, in assay [1], the “% inhibition HDAC @ 100 μM” value was determined as 95%.

On to `O=C(NO)c1cnc(N2CCN(S(=O)(=O)c3cccc(CN4CCCC4)c3)CC2)s1` [Example 98], for which the inhibition at 100 µM in the assay on MCF7 cells amounted to 92.2%. The “% inhibition HDAC @ 100 μM” value in assay [1] is 98%.

For the molecule `CCN(CC)Cc1cccc(-c2ccc(S(=O)(=O)N3CCN(c4ncc(C(=O)NO)s4)CC3)cc2)c1.Cl` [Example 78], the inhibition at 100 µM with MCF7 cells was found to be 99%. The “% inhibition HDAC @ 100 μM” value in assay [1] is 100%.

In the case of `O=C(NO)c1cnc(N2CCN(S(=O)(=O)c3ccc(-c4cccc(CN5CCCC5)c4)s3)CC2)s1` [Example 90, 2-(4-{5-[3-(pyrrolidin-1-ylmethyl)phenyl]thiophene-2-sulfonyl}piperazin-1-yl)-1,3-thiazole-5-carboxylic acid hydroxyamide], the inhibition at 100 µM with MCF7 cells came out at 98%. Also, the “% inhibition HDAC @ 100 μM” value in assay [1] was determined as 99%.
